Data on one compound can be found in US11865119B2, “Methods of treating agitation and other dementia-associated behavioral symptoms” (Woolsey Pharmaceuticals, Inc., priority 2021, dated 2024).

In assay [1] the test system is agitation in patients with Alzheimer's Dementia (AD). Description: Clinical trial of oral fasudil in reducing agitation in patients with Alzheimer's Dementia (CMAI, NPI-Q). The class given is in vivo, human. As to conditions: cutoff moved from 0 to 35 in 5-point increments; FIG. 3. As for the experimental part:
All the patients were treated for 6 weeks with 90 mg per day (30 mg TID) and a subset of patients was treated an additional 6 weeks with 180 mg per day (60 mg TID). […] A variety of assessments were conducted at baseline and at the end of treatment, including the NPI-Q and the CMAI.
Two baseline thresholds were set, and two analyses were done based on the two groupings that resulted. One threshold was based on the agitation/aggression domain of the NPI-Q and the other based on the CMAI score.
The first selection was based on NPI-Q score of ≥4.
The second selection required a baseline CMAI score of ≥20 and this yielded a 13-patient subgroup, having a mean baseline CMAI score of 34.4. […] All the patients selected using the NPI-Q agitation/aggression domain score of ≥4 were also included in this subgroup.
The analysis looked at the CMAI score prior to treatment and compared it to the last day of treatment (6 weeks for the 10 patients on the low dose and 12 weeks for the 3 patients on the high dose).
Finally, to examine the effects of changing the CMAI-C threshold, 5-point increments were used to move the cutoff from 0 to 35. […] It was concluded that setting the CMAI-C threshold of at least 5 provided a meaningful result over the population, even though higher thresholds we more powerful at detecting change.

The test system of another assay is mice. As to conditions: six-month old mice; 10 mg/kg oral gavage once a day for 30 days; assessed over final 3 days; vs water; cited from earlier work.

For the compound `O=S(=O)(c1cccc2cnccc12)N1CCCNCC1` [fasudil], in assay [1], the “effect of changing the baseline CMAI-C threshold on magnitude of observed effect” value is listed as “As the threshold increased, so did the magnitude of the observed effect”. In addition, the “amount of time spent in the open arms of the maze” value with mice is listed as “significantly reduced”.
